Data taken from US11225645B2 (priority 2002, dated 2022).
“Also recorded” adds a separate entry of the source. Like-named read-outs stand apart in the source and are kept apart here.

What was measured:
[1] = tested on: coenzyme-binding glucose dehydrogenase; experiment: Substrate specificity and Km value, Enzymatic activity measurement method 1; type: biochemical, Aspergillus terreus
Procedure: Employing each of D-glucose and other substrates (each at 333 mM as a final concentration, except for D-cellobiose at 193 mM, D-trehalose and D-raffinose at 121 mM), the enzymatic activity of this enzyme was measured by the Enzymatic activity measurement method 1. The activity on each substrate is represented as a relative value to the activity of this enzyme on D-glucose being regarded as 100%, and shown in Table 1.
Similarly, the relative reactivities (enzymatic activity) on D-glucose and maltose each at two final concentrations, i.e. 550 mM and 100 mM, were measured. The results are represented as relative values based on the value on D-glucose.

[2] = tested on: coenzyme-binding glucose dehydrogenase; experiment: Inhibitor test, additives added to Enzymatic activity measurement method 1; type: biochemical, Aspergillus terreus
[3] = target: glucose dehydrogenase whose coenzyme is the pyrroloquinolinequinone derived from Escherichia coli (Escherichia coli, UniProt P15877); details: relative to glucose = 100%; cited from earlier work
[4] = tested on: glucose dehydrogenase whose coenzyme is the pyrroloquinolinequinone derived from Pseudomonas sp.; details: relative to glucose = 100%; cited from earlier work
[5] = target: glucose dehydrogenase whose coenzyme is the pyrroloquinolinequinone derived from Gluconobacter suboxydans (Gluconobacter oxydans, UniProt P27175); details: relative to glucose = 100%; cited from earlier work
[6] = tested on: glucose dehydrogenase whose coenzyme is a flavin adenine dinucleotide of Aspergillus oryzae; details: cited from earlier work
[7] = substrate 333 mM final, activity on D-glucose = 100%
[8] = additive 1 mM final concentration
[9] = substrate 121 mM final, activity on D-glucose = 100%
[10] = substrate final conc. 100 mM, D-glucose = 100%
[11] = substrate final conc. 550 mM, D-glucose = 100%

Sequence of glucose dehydrogenase whose coenzyme is the pyrroloquinolinequinone derived from Gluconobacter suboxydans (P27175 34-808): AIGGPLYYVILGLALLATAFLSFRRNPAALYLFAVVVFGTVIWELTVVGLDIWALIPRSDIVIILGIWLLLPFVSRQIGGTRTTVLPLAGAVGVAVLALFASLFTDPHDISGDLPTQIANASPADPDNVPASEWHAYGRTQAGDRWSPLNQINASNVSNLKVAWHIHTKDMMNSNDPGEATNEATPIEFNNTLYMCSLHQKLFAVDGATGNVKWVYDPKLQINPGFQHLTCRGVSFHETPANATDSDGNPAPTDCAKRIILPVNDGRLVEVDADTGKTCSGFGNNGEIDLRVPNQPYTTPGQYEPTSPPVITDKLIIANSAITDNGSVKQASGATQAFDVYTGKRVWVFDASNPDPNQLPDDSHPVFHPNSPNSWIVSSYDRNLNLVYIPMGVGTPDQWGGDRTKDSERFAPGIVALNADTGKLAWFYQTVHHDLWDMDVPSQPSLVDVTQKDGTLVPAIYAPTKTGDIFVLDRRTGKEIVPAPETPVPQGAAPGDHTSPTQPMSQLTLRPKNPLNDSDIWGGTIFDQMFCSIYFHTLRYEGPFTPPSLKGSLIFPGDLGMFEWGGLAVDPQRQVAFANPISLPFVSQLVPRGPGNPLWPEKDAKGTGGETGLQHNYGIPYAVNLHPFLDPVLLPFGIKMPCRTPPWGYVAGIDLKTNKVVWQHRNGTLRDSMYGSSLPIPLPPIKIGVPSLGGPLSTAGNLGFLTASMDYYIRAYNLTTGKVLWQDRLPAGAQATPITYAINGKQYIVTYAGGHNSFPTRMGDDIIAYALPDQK
Sequence of glucose dehydrogenase whose coenzyme is the pyrroloquinolinequinone derived from Escherichia coli (P15877 whole entry): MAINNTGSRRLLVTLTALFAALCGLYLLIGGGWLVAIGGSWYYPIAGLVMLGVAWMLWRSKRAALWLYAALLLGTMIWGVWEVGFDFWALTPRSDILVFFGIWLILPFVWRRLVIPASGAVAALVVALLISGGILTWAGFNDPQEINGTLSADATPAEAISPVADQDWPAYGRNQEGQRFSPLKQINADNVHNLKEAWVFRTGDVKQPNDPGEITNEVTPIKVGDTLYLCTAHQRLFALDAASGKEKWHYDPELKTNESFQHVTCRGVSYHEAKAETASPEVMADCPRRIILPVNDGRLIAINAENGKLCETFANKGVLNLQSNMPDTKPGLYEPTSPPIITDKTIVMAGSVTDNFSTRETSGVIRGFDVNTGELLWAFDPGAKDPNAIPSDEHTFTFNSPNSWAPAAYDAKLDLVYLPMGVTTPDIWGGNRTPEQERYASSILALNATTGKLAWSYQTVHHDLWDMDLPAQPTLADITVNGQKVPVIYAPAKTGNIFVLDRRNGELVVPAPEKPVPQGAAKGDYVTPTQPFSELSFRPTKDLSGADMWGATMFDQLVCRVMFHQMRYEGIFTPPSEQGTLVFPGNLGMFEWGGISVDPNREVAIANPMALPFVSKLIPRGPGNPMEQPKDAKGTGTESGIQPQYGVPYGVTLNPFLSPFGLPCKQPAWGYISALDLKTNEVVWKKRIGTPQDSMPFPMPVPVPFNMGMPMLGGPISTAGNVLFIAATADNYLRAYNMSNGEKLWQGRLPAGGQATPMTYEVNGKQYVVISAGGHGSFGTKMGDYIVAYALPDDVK

Compound: OC[C@@H](O)[C@@H](O)[C@H](O)[C@@H](O)CO [D-Sorbitol]
- Relative activity (%) [1, 7]: 0.1> %
- Activity of the enzyme on the substrate (in words) ([1]; summary of Tables 1 and 2): Almost no activity; also recorded: almost no effect

Compound: O=C(O)CC(O)(CC(=O)O)C(=O)O [Citric acid]
- Inhibition (%) [2, 8]: 5.6%

Compound: CCN(CC)CCCC(C)Nc1c2ccc(Cl)cc2nc2ccc(OC)cc12 (stereo not shown) [Quinacrine]
- Inhibition (%) [2, 8]: 5.0%

Compound: [N-]=[N+]=[N-].[Na+] [NaN3]
- Inhibition (%) [2]: 0%

Compound: OC[C@H]1O[C@@](CO)(O[C@H]2O[C@H](CO)[C@@H](O)[C@H](O)[C@H]2O)[C@@H](O)[C@@H]1O [Sucrose]
- Relative activity (%) [1, 7]: 0.1> %
- Activity of the enzyme on the substrate (in words) ([1]; summary of Tables 1 and 2): Almost no activity; also recorded: almost no effect

Compound: OC[C@H]1OC[C@H](O)[C@@H](O)[C@@H]1O [1,5-Anhydro-D-glucitol]
- Relative activity (%) [1, 7]: 2%
- Activity of the enzyme on the substrate (in words) ([1]; summary of Tables 1 and 2): lower activity; also recorded: weakly

Compound: O=S(=O)([O-])c1cc(O)c(O)c(S(=O)(=O)[O-])c1.[Na+].[Na+] [Tirone]
- Inhibition (%) [2]: 2.5%

Compound: OCC(O)CO [Glycerol]
- Relative activity (%) [1, 7]: 0.1> %
- Activity of the enzyme on the substrate (in words) ([1]; summary of Tables 1 and 2): Almost no activity; also recorded: almost no effect

Compound: OC[C@H]1O[C@H](OC[C@H]2O[C@H](O[C@]3(CO)O[C@H](CO)[C@@H](O)[C@@H]3O)[C@H](O)[C@@H](O)[C@@H]2O)[C@H](O)[C@@H](O)[C@H]1O [D-Raffinose]
- Relative activity (%) [1, 9]: 0.1> %
- Activity of the enzyme on the substrate (in words) ([1]; summary of Tables 1 and 2): Almost no activity; also recorded: almost no effect

Compound: OC[C@H]1O[C@@H](O[C@H]2[C@H](O)[C@@H](O)[C@H](O)O[C@@H]2CO)[C@H](O)[C@@H](O)[C@@H]1O [D-Cellobiose]
- Relative activity (%) ([1]; substrate 193 mM final, activity on D-glucose = 100%): 2%
- Activity of the enzyme on the substrate (in words) ([1]; summary of Tables 1 and 2): lower activity; also recorded: weakly

Compound: O=P(O)(O)O[C@H]1O[C@H](CO)[C@@H](O)[C@H](O)[C@H]1O [D-Glucose-1-phosphate]
- Relative activity (%) [1, 7]: 0.1> %
- Activity of the enzyme on the substrate (in words) ([1]; summary of Tables 1 and 2): Almost no activity; also recorded: almost no effect

Compound: CCN1C(=O)C=CC1=O [N-Ethylmaleimide]
- Inhibition (%) [2, 8]: 1.8%

Compound: [Cl][Hg][Cl] [HgCl2]
- Inhibition (%) [2, 8]: 100%
- Inhibitory effect (in words) ([2]; additive 1 mM final concentration, listed as Hg^2+): highest; also recorded: inhibited potently

Compound: NC(N)=O [Urea]
- Inhibition (%) [2, 8]: 1.9%

Compound: O=C(O)CN(CCN(CC(=O)O)CC(=O)O)CC(=O)O [EDTA]
- Inhibition (%) [2]: 0.4%

Compound: [Cl][Al]([Cl])[Cl] [AlCl3]
- Inhibition (%) [2]: 0%

Compound: Acriflavine
- Inhibition (%) [2, 8]: 49.0%

Compound: O=C(O)[C@H](O)[C@@H](O)[C@H](O)[C@H](O)CO [Gluconic acid]
- Activity of the enzyme on the substrate (in words) [1]: Almost no activity; also recorded: almost no effect
- Relative activity (%) [1]: 0.1> %

Compound: Oc1cccc2cccnc12 [8-Quinolinol]
- Inhibition (%) [2]: 13.9%

Compound: TritonX-100
- Inhibition (%) [2, 8]: 6.2%

Compound: NCCS [Cysteamine]
- Inhibition (%) [2, 8]: 9.8%

Compound: CCO [Ethanol]
- Relative activity (%) [1, 7]: 0.1> %
- Activity of the enzyme on the substrate (in words) ([1]; summary of Tables 1 and 2): Almost no activity; also recorded: almost no effect

Compound: [Cl-].[Cl-].[Zn+2] [ZnCl2]
- Inhibition (%) [2]: 0%

Compound: [Ca+2].[Cl-].[Cl-] [CaCl2]
- Inhibition (%) [2]: 5.7%

Compound: O=C[C@H](O)[C@H](O)[C@H](O)CO [D-Ribose]
- Relative activity (%) [1, 7]: 0.1> %
- Activity of the enzyme on the substrate (in words) ([1]; summary of Tables 1 and 2): Almost no activity; also recorded: almost no effect

Compound: O=[N+]([O-])[O-].[Ag+] [AgNO3]
- Inhibition (%) [2]: 99.4%
- Inhibitory effect (in words) [2]: highest; also recorded: inhibited potently

Compound: OC[C@@H](O)[C@@H](O)[C@H](O)[C@H](O)CO [D-Mannitol]
- Relative activity (%) [1, 7]: 0.1> %
- Activity of the enzyme on the substrate (in words) ([1]; summary of Tables 1 and 2): Almost no activity; also recorded: almost no effect

Compound: [Cl-].[Li+] [LiCl]
- Inhibition (%) [2, 8]: 0.9%

Compound: OC[C@H]1O[C@H](O[C@H]2O[C@H](CO)[C@@H](O)[C@H](O)[C@H]2O)[C@H](O)[C@@H](O)[C@@H]1O [D-Trehalose]
- Relative activity (%) [1, 9]: 1.7%
- Activity of the enzyme on the substrate (in words) ([1]; summary of Tables 1 and 2): lower activity; also recorded: weakly

Compound: CC(O)C(=O)O.CCOc1ccc2nc3cc(N)ccc3c(N)c2c1 [Acrinol]
- Inhibition (%) [2, 8]: 29.0%

Compound: [Cl][Pb][Cl] [PbCl2]
- Inhibition (%) [2]: 2.7%

Compound: O=C[C@H](O)[C@@H](O)[C@H](O)CO [D-Xylose]
- Relative activity (%) [1, 7]: 9.1%

Compound: OC[C@H]1O[C@@H](O[C@H]2[C@H](O)[C@@H](O)C(O)O[C@@H]2CO)[C@H](O)[C@@H](O)[C@H]1O (stereo partly shown) [Lactose]
- Relative activity (%) [1, 7]: 0.1> %
- Activity of the enzyme on the substrate (in words) ([1]; summary of Tables 1 and 2): Almost no activity; also recorded: almost no effect

Compound: CoCl2
- Inhibition (%) [2]: 7.0%

Compound: O=C(CO)[C@@H](O)[C@H](O)[C@H](O)CO [D-Fructose]
- Relative activity (%) [1, 7]: 0.86%
- Activity of the enzyme on the substrate (in words) ([1]; summary of Tables 1 and 2): lower activity; also recorded: weakly

Compound: O=C(O)c1ccccc1 [Benzoic acid]
- Inhibition (%) [2]: 0%

Compound: [Cl][Ni][Cl] [NiCl2]
- Inhibition (%) [2]: 16.5%

Compound: O=C[C@@H](O)[C@@H](O)[C@H](O)[C@H](O)CO [D-Mannose]
- Relative activity (%) [1, 7]: 2.8%
- Activity of the enzyme on the substrate (in words) ([1]; summary of Tables 1 and 2): lower activity; also recorded: weakly

Compound: [Cl][Cu][Cl] [CuCl2]
- Inhibition (%) [2]: 100%
- Inhibitory effect (in words) [2]: highest; also recorded: inhibited potently

Compound: c1ccc(-c2ccccn2)nc1 [2,2′-Bipyridine]
- Inhibition (%) [2, 8]: 10.8%

Compound: [Cl][Cd][Cl] [CdCl2]
- Inhibition (%) [2]: 0.8%

Compound: [Ba+2].[Cl-].[Cl-] [BaCl2]
- Inhibition (%) [2, 8]: 2.6%

Compound: O=C(O)/C=C\C(=O)O [Maleic acid]
- Inhibition (%) [2, 8]: 26.2%

Compound: O=C(CO)[C@@H](O)[C@H](O)[C@@H](O)CO [L-Sorbose]
- Relative activity (%) [1, 7]: 0.1> %
- Activity of the enzyme on the substrate (in words) ([1]; summary of Tables 1 and 2): Almost no activity; also recorded: almost no effect

Compound: Nc1ccc2cc3ccc(N)cc3nc2c1 [Proflavin]
- Inhibition (%) [2, 8]: 62.0%

Compound: OC[C@H]1O[C@H](O[C@H]2[C@H](O)[C@@H](O)[C@H](O)O[C@@H]2CO)[C@H](O)[C@@H](O)[C@@H]1O [Maltose]
- Relative activity (%) [1, 7]: 1.4%
- Relative activity (%) [1, 10]: 0.5%
- Relative activity (%) [1, 11]: 2.8%
- Activity of the enzyme on the substrate (in words) ([1]; summary of Tables 1 and 2): lower activity; also recorded: weakly
- Activity on maltose [3]: 3%
- Activity on maltose [4]: 3.2%
- Activity on maltose [5]: 5%

Compound: O=C(O)CI [Iodoacetic acid]
- Inhibition (%) [2]: 9.5%

Compound: [Cl][Sn][Cl] [SnCl2]
- Inhibition (%) [2]: 45.5%

Compound: N[C@@H]1CON=C1O [Cycloserine]
- Inhibition (%) [2, 8]: 3.6%

Compound: O=CC[C@@H](O)[C@H](O)[C@H](O)CO [2-Deoxy-D-glucose]
- Relative activity (%) [1, 7]: 48%

Compound: O=C(O)/C=C/C(=O)O [Fumaric acid]
- Inhibition (%) [2, 8]: 3.4%

Compound: O=C(O)[C@@H](O)[C@H](O)C(=O)O [D-Tartaric acid]
- Inhibition (%) [2, 8]: 8.5%

Compound: [Cl][Fe]([Cl])[Cl] [FeCl3]
- Inhibition (%) [2]: 25.0%

Compound: [Cl-].[Cl-].[Mg+2] [MgCl2]
- Inhibition (%) [2]: 2.8%

Compound: O=C(O)c1ccccc1[N+](=O)[O-] [2-Nitrobenzoic acid]
- Inhibition (%) [2, 8]: 44.3%

Compound: C[C@H](O)[C@H](O)[C@@H](O)[C@@H](O)C=O [L-Rhamnose]
- Relative activity (%) [1, 7]: 0.1> %
- Activity of the enzyme on the substrate (in words) ([1]; summary of Tables 1 and 2): Almost no activity; also recorded: almost no effect

Compound: OO [H2O2]
- Inhibition (%) [2]: 1.7%

Compound: O=C(O)C(O)C(O)C(=O)O (stereo not drawn) [Meso-tartaric acid]
- Inhibition (%) [2, 8]: 5.6%

Compound: CC(C)(S)C(N)C(=O)O (racemic) [DL-Penicillamine]
- Inhibition (%) [2, 8]: 4.3%

Compound: O=C[C@H](O)[C@@H](O)[C@H](O)[C@H](O)COP(=O)(O)O [D-Glucose-6-phosphate]
- Relative activity (%) [1, 7]: 1.1%
- Activity of the enzyme on the substrate (in words) ([1]; summary of Tables 1 and 2): lower activity; also recorded: weakly

Compound: O=C[C@H](O)[C@@H](O)[C@@H](O)[C@H](O)CO [D-Galactose]
- Relative activity (%) [1, 7]: 1.2%
- Activity of the enzyme on the substrate (in words) ([1]; summary of Tables 1 and 2): lower activity; also recorded: weakly

Compound: c1cnc2c(c1)ccc1cccnc12 [1,10-Phenanthroline]
- Inhibitory effect ([2]; 1 mM final concentration, methanol 10% (v/v)): 62.0%
- Inhibit (%) ([2]; 5 mM final concentration, methanol 10% (v/v)): 76%
- Inhibit (%) ([2]; 10 mM final concentration, methanol 10% (v/v)): 85%
- Inhibit (%) ([2]; 25 mM final concentration, methanol 10% (v/v)): 91%
- Inhibit (%) ([2]; 50 mM final concentration, methanol 10% (v/v)): 95%
- Inhibition (%) [2, 8]: 62.0%
- Inhibition (in words) [6]: not inhibited

Compound: O=C[C@H](O)[C@@H](O)[C@@H](O)CO [L-Arabinose]
- Relative activity (%) [1, 7]: 0.1> %
- Activity of the enzyme on the substrate (in words) ([1]; summary of Tables 1 and 2): Almost no activity; also recorded: almost no effect

Compound: [Cl-].[Na+] [NaCl]
- Inhibition (%) [2]: 2.5%

Compound: NN=C(N)N.O=S(=O)(O)O [Aminoguanidine sulfate]
- Inhibition (%) [2]: 1.1%

Compound: O=C[C@H](O)[C@@H](O)[C@H](O)[C@H](O)CO [D-Glucose]
- Km [1]: 49.7 mM
- Relative activity (%) [1, 7]: 100%
- Relative activity (%) [1, 10]: 100%
- Relative activity (%) [1, 11]: 100%
- Activity of the enzyme on the substrate (in words) ([1]; summary of Tables 1 and 2): higher activity; also recorded: potently

Compound: O=C(O)CC(O)C(=O)O (stereo not shown) [Malic acid]
- Inhibition (%) [2, 8]: 8.1%
